Assay results from US9024041B2, “P38 MAP kinase inhibitors” (Respivert Ltd., priority 2010, dated 2015).
pEC50, pIC50: −log10 of the molar value. Marks after values point to notes of the source that are not given here.

Tests used:
[1] = target: T1, Recombinant, phosphorylated p38 MAPKγ (MAPK12:Invitrogen) (Homo sapiens, UniProt P53778); assay: p38 MAPKγ enzyme inhibition assay (FRET, Z-LYTE); assay type: biochemical; conditions: 2 hr pre-incubation, ATP 100 μM; read-out: Enzyme Inhibition IC50 p38γ
T1 construct: purchased Invitrogen
T1 sequence (P53778 1-367): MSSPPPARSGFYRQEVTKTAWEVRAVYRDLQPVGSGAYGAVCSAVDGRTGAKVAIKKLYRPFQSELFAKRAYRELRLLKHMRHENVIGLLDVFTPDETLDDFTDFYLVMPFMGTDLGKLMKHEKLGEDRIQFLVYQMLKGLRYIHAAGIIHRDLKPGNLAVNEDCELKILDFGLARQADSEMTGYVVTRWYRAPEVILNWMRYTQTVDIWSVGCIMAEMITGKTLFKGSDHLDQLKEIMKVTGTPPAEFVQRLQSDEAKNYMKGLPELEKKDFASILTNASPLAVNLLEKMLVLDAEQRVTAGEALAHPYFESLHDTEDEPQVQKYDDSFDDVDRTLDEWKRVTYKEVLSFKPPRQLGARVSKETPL
Method: (§2) The enzyme inhibitory activities of compounds disclosed herein were determined by fluorescence resonance energy transfer (FRET) using synthetic peptides labelled with both donor and acceptor fluorophores (Z-LYTE, Invitrogen Ltd., Paisley, UK). Recombinant, phosphorylated p38 MAPKγ (MAPK12:Invitrogen) was diluted in HEPES buffer, mixed with the test compound at the desired final concentrations and incubated for 2 hr at RT. The FRET peptide (2 μM) and ATP (100 μM) were added to the enzyme/compound mixture and incubated for 1 hr. Development reagent (protease) was added for 1 hr prior to detection in a fluorescence microplate reader (Varioskan® Flash, ThermoFisher Scientific). The site-specific protease cleaves non-phosphorylated peptide only and eliminates the FRET signal. Phosphorylation levels of each reaction were calculated using the ratio of coumarin emission (donor) over fluorescein emission (acceptor) for which high ratios indicate high phosphorylation and low ratios indicate low phosphorylation levels.

[2] = test system: Poly I:C-induced ICAM-1 expression in BEAS2B cells; assay: Poly I:C-induced ICAM-1 induction in BEAS2B cells; assay type: cell-based; conditions: Homo sapiens, BEAS-2B, poly I:C 1 μg/mL, 18 hr, read-out: PolyI:C/ICAM1 IC50 BEAS2B
Outline: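 Human bronchial epithelial BEAS2B cells were pre-incubated with compound for 2 h, then transfected with poly I:C at 1 μg/mL. Surface ICAM-1 was measured 18 h later by cell-based ELISA (OD450–655), normalised to crystal-violet cell number (OD595). IC50 was taken from the concentration–response curve against vehicle.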

[3] = test system: LPS-induced TNFα release in THP-1 cells; assay: LPS-induced TNFα release in THP-1 cells; assay type: cell-based; conditions: Homo sapiens, 3 μg/mL LPS, 4 hr
Outline: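 Human monocytic cells were stimulated with 3 μg/mL E. coli LPS for 4 hr. Supernatant TNFα was measured by sandwich ELISA. Inhibition was taken relative to vehicle control, and IC50 derived from the concentration-response curve.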

[4] = test system: LPS-induced TNFα release in d-U937 cells; assay: LPS-induced TNFα release in d-U937 cells; assay type: cell-based; conditions: Homo sapiens, dU937, 4 h; read-out: LPS/TNFα REC50 d-U937
Outline: (§1)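 U937 cells differentiated with PMA (100 ng/mL, 48–72 hr), pre-incubated with compound 2 hr, then stimulated with 0.1 μg/mL E. coli O111:B4 LPS for 4 hr. Supernatant TNFα and IL-8 measured by sandwich ELISA; REC50 (TNFα) and IC50 (IL-8 inhibition vs vehicle) taken from concentration-response curves.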

[5] = target: T2, p38 MAPKα isoform (MAPK14: Invitrogen) (Homo sapiens, UniProt Q16539); assay: p38 MAPKα enzyme inhibition assay (FRET, Z-LYTE, via MAPKAP-K2 activation); assay type: biochemical; conditions: 2 hr pre-incubation, ATP 10.0 μM; read-out: Enzyme Inhibition IC50 p38α
T2 construct: purchased Invitrogen
Method: as §2
For the p38 MAPKα isoform (MAPK14: Invitrogen), enzyme activity was evaluated indirectly by determining the level of activation/phosphorylation of the down-stream molecule, MAPKAP-K2. The p38 MAPKα protein was mixed with the test compound for 2 hr at RT. […] Development reagent was then added and the mixture incubated for 1 hr before detection by fluorescence completed the assay protocol.

[6] = test system: LPS-induced IL-8 release in d-U937 cells; assay: LPS-induced IL-8 release in d-U937 cells; assay type: cell-based; conditions: Homo sapiens, dU937, 0.1 μg/mL LPS, 4 hr
Outline: as §1

[7] = test system: Differentiated U937 cells; assay: MTT assay: cell viability on exposure to test compounds; assay type: cell-based, human; conditions: percentage loss of cell viability vs vehicle; for MTT Assay (Viability) 4 h d-U937: 5% FCS; for MTT Assay (Viability) 24 h d-U937: 10% FCS
Outline: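 Differentiated U937 cells were pre-incubated with compound for either 4 h in 5% FCS or 24 h in 10% FCS, then given MTT for 1 h. Formazan was dissolved in DMSO and read at 550 nm. Viability loss is expressed as % versus 0.5% DMSO vehicle, so an apparent gain appears as a negative value.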

T2 sequence (Q16539 whole entry, canonical isoform): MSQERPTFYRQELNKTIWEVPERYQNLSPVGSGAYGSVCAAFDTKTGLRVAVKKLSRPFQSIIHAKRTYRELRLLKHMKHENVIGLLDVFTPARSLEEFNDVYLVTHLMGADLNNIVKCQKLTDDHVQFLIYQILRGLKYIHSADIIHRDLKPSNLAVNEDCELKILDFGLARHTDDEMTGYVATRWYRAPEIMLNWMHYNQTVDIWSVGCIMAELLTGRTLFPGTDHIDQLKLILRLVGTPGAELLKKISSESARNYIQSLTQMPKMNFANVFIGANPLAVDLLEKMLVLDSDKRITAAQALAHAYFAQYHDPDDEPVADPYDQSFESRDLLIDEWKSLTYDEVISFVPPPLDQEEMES

## COc1ccc(-n2nc(C(C)(C)C)cc2NC(=O)Nc2ccc(Oc3ccnc(NC(=O)NC4CC4)c3)c3ccccc23)cc1 [Example 6, 1-(3-(tert-Butyl)-1-(4-methoxyphenyl)-1H-pyrazol-5-yl)-3-(4-(2-(3-cyclopropylureido)pyridin-4-yloxy)naphthalen-1-yl)urea]
[1]
  pIC50: 7.29
[2]
  pIC50: 9.00
[3]
  pIC50: 8.92
[4]
  pEC50: 7.71
[5]
  pIC50: 7.75
[6]
  pIC50: 8.59
[7]; 1 μg/mL
  MTT Assay (Viability) 4 h d-U937: −10.7%
  MTT Assay (Viability) 24 h d-U937: −50.1%

## COCC(=O)Nc1cc(Oc2ccc(NC(=O)Nc3cc(C4CC4)nn3-c3ccc(C)cc3)c3ccccc23)ccn1 [Example 24, N-(4-((4-(3-(3-cyclopropyl-1-p-tolyl-1H-pyrazol-5-yl)ureido)naphthalen-1-yl)oxy)pyridin-2-yl)-2-methoxyacetamide]
[1]
  pIC50: 5.87
[2]
  pIC50: 6.96
[3]
  pIC50: 7.93
[4]
  pEC50: 8.48
[5]
  pIC50: 8.82
[6]
  pIC50: 7.45
[7]; 1 μg/mL
  MTT Assay (Viability) 4 h d-U937: −10.8%
  MTT Assay (Viability) 24 h d-U937: −7.4%

## CNC(=O)Nc1cc(Oc2ccc(NC(=O)Nc3cc(C(C)(C)C)nn3-c3ccc(O)nc3)c(C)c2C)ccn1 [Example 62, 1-(4-(4-(3-(3-tert-butyl-1-(6-hydroxypyridin-3-yl)-1H-pyrazol-5-yl)ureido)-2,3-dimethylphenoxy)pyridin-2-yl)-3-methylurea]
[1]
  pIC50: 7.69
[2]
  pIC50: 7.61
[3]
  pIC50: 8.59
[4]
  pEC50: 8.60
[5]
  pIC50: 7.83
[6]
  pIC50: 7.84
[7]; 1 μg/mL
  MTT Assay (Viability) 4 h d-U937: −1.1%
  MTT Assay (Viability) 24 h d-U937: −2.6%

## COCC(=O)Nc1cc(Oc2ccc(NC(=O)Nc3cc(C(C)(C)C)nn3-c3ccc(S(C)(=O)=O)cc3)c3ccccc23)ncn1 [Example 50, N-(6-(4-(3-(3-tert-butyl-1-(4-(methylsulfonyl)phenyl)-1H-pyrazol-5-yl)ureido)naphthalen-1-yloxy)pyrimidin-4-yl)-2-methoxyacetamide]
[1]
  pIC50: 7.41
[2]
  pIC50: 7.00
[3]
  pIC50: 7.88
[4]
  pEC50: 8.35
[5]
  pIC50: 8.02
[6]
  pIC50: 6.56
[7]; 1 μg/mL
  MTT Assay (Viability) 4 h d-U937: −8.0%
  MTT Assay (Viability) 24 h d-U937: −10.4%

## COCCOCC(=O)Nc1cc(C(=O)c2ccc(NC(=O)Nc3cc(C(C)(C)C)nn3-c3ccc(C)cc3)c3ccccc23)ccn1 [Example 22, N-(4-(4-(3-(3-(tert-Butyl)-1-(p-tolyl)-1H-pyrazol-5-yl)ureido)-1-naphthoyl)pyridin-2-yl)-2-(2-methoxyethoxy)acetamide]
[1]
  pIC50: 5.15
[2]
  pIC50: 6.24
[3]
  pIC50: 7.27
[4]
  pEC50: 8.52
[5]
  pIC50: 7.85
[6]
  pIC50: 6.19
[7]; 10 μg/mL
  MTT Assay (Viability) 4 h d-U937: 21.1^b %
  MTT Assay (Viability) 24 h d-U937: 80.8^b %

## COCC(=O)Nc1cc(Sc2ccc(NC(=O)Nc3cc(C(C)(C)C)nn3-c3ccc(C)cc3)c3ccccc23)ccn1 [Example 21, N-(4-(4-(3-(3-tert-Butyl-1-p-tolyl-1H-pyrazol-5-yl)ureido)naphthalen-1-ylthio)pyridin-2-yl)-2-methoxyacetamide]
[1]
  pIC50: 6.47
[2]
  pIC50: 8.20
[3]
  pIC50: 8.60
[4]
  pEC50: 8.18
[5]
  pIC50: 7.59
[6]
  pIC50: 7.52
[7]; 1 μg/mL
  MTT Assay (Viability) 4 h d-U937: 2.7%
  MTT Assay (Viability) 24 h d-U937: 5.3%

## COCC(=O)Nc1cc(Cc2ccc(NC(=O)Nc3cc(C(C)(C)C)nn3-c3ccc(C)cc3)c3ccccc23)ccn1 [Example 64, N-(4-((4-(3-(3-tert-butyl-1-(p-tolyl)-1H-pyrazol-5-yl)ureido)naphthalen-1-yl)methyl)pyridin-2-yl)-2-methoxyacetamide]
[1]
  pIC50: 5.78
[2]
  pIC50: 7.70
[3]
  pIC50: 7.96
[4]
  pEC50: 8.68
[5]
  pIC50: 7.77
[6]
  pIC50: 8.13
[7]; 10 μg/mL
  MTT Assay (Viability) 4 h d-U937: −3.7^b %
  MTT Assay (Viability) 24 h d-U937: 61.6^b %

## COCC(=O)Nc1cc(C(=O)c2ccc(NC(=O)Nc3cc(C(C)(C)C)nn3-c3ccc(C)cc3)c3ccccc23)ccn1 [Example 66, N-(4-(4-(3-(3-tert-butyl-1-p-tolyl-1H-pyrazol-5-yl)ureido)-1-naphthoyl)pyridin-2-yl)-2-methoxyacetamide]
[1]
  pIC50: 5.13
[2]
  pIC50: 7.32
[3]
  pIC50: 8.54
[4]
  pEC50: 9.00
[5]
  pIC50: 8.14
[6]
  pIC50: 6.77
[7]; 10 μg/mL
  MTT Assay (Viability) 4 h d-U937: 11.0^b %
  MTT Assay (Viability) 24 h d-U937: 71.1^b %

## CNS(=O)(=O)Cc1ccc(-n2nc(C(C)(C)C)cc2NC(=O)Nc2ccc(Oc3ccnc(NC(=O)COC)c3)c3ccccc23)cc1 [Example 31, N-(4-(4-(3-(3-tert-butyl-1-(4-((N-methylsulfamoyl)methyl)phenyl)-1H-pyrazol-5-yl)ureido)naphthalen-1-yloxy)pyridin-2-yl)-2-methoxyacetamide]
[1]
  pIC50: 7.11
[2]
  pIC50: < 6.83
[3]
  pIC50: 9.00
[4]
  pEC50: 9.10
[5]
  pIC50: 7.77
[6]
  pIC50: 7.71
[7]; 1 μg/mL
  MTT Assay (Viability) 4 h d-U937: 1.7%
  MTT Assay (Viability) 24 h d-U937: 50.1%

## COCC(=O)Nc1cc(Oc2ccc(NC(=O)Nc3cc(C4(C)CCOCC4)nn3-c3ccc(C)cc3)c3ccccc23)ccn1 [Example 20, 2-Methoxy-N-(4-(4-(3-(3-(4-methyltetrahydro-2H-pyran-4-yl)-1-p-tolyl-1H-pyrazol-5-yl)ureido)naphthalen-1-yloxy)pyridin-2-yl)acetamide]
[1]
  pIC50: 6.85
[2]
  pIC50: 8.36
[3]
  pIC50: 9.05
[4]
  pEC50: 9.70
[5]
  pIC50: 8.44
[6]
  pIC50: 9.22
[7]; 1 μg/mL
  MTT Assay (Viability) 4 h d-U937: −32.6%
  MTT Assay (Viability) 24 h d-U937: −9.0%

## COCC(=O)Nc1cc(Oc2ccc(NC(=O)Nc3cc(C(F)(F)C(F)(F)F)nn3-c3ccc(C)cc3)c3ccccc23)ccn1 [Example 30, 2-methoxy-N-(4-(4-(3-(3-(perfluoroethyl)-1-p-tolyl-1H-pyrazol-5-yl)ureido)naphthalen-1-yloxy)pyridin-2-yl)acetamide]
[1]
  pIC50: < 4.81
[2]
  pIC50: 5.83
[3]
  pIC50: 7.99
[4]
  pEC50: 6.97
[5]
  pIC50: 8.00
[6]
  pIC50: 5.72
[7]; 1 μg/mL
  MTT Assay (Viability) 4 h d-U937: −6.3%
  MTT Assay (Viability) 24 h d-U937: −46.1%

## CNC(=O)Nc1cc(Oc2ccc(NC(=O)Nc3cc(C(C)(C)C)nn3-c3ccc(O)cc3)c3ccccc23)ccn1 [Example 33, 1-(3-tert-butyl-1-(4-hydroxyphenyl)-1H-pyrazol-5-yl)-3-(4-(2-(3-methylureido)pyridin-4-yloxy)naphthalen-1-yl)urea]
[1]
  pIC50: 6.75
[2]
  pIC50: 8.36
[3]
  pIC50: 9.00
[4]
  pEC50: 9.15
[5]
  pIC50: 8.28
[6]
  pIC50: 8.15
[7]; 1 μg/mL
  MTT Assay (Viability) 4 h d-U937: −1.3%
  MTT Assay (Viability) 24 h d-U937: −24.1%

## COCC(=O)Nc1cc(Oc2ccc(NC(=O)Nc3cc(C4CCOCC4)nn3-c3ccc(C)cc3)c3ccccc23)ccn1 [Example 28, 2-methoxy-N-(4-(4-(3-(3-(tetrahydro-2H-pyran-4-yl)-1-p-tolyl-1H-pyrazol-5-yl)ureido)naphthalen-1-yloxy)pyridin-2-yl)acetamide]
[1]
  pIC50: 5.03
[2]
  pIC50: 5.80
[3]
  pIC50: 7.38
[4]
  pEC50: 8.15
[5]
  pIC50: 8.85
[6]
  pIC50: 7.20
[7]; 1 μg/mL
  MTT Assay (Viability) 4 h d-U937: −23.7%
  MTT Assay (Viability) 24 h d-U937: −34.5%
